Earlier results as cited in patent US8679304B2, “Apparatus for creating bioactive solution” (priority 2008, dated 2014).

System: Cryptosporidium oocysts
Details: pH 7

[O][Cl+][O-] [chlorine dioxide]
approximate CT values for 99% inactivation: ~78
